Legend:
Assay type in all cases: in vivo
[1] = test system: IL-1β; assay: Cytokine ELISA in CIA mice, day 60: IL-1β
Text: (§1) With continued reference to FIG. 1, in some embodiments, administration 116 may be done to an animal. As a non-limiting example, the animal may include a mouse, a fish, a rabbit, human, and the like. As a non-limiting example, administration 116 of composition of the engineered virus-based nanoparticle for a treatment of an autoimmune condition may be done to dilute, brown, and non-agouti (DBA) mice based on their susceptibility to collagen-induced arthritis (CIA). Female DBA/1 mice 6 to 8 weeks of age may be maintained under specific pathogen-free conditions. CIA may be induced by the intradermal tail base injection of 100 μg of chicken type II collagen (Sigma-Aldrich) as previously described. Five mice per group may be immunized on days 0 and 21 to induce arthritis. The onset of disease may be confirmed on the day that swelling or erythema may be observed in any paw, typically 4 to 10 days after the second immunization. […] CIA may be assessed using a macroscopic score system based on the visual identification of arthritic limbs. The clinical severity of arthritis may be evaluated as follows: Each mouse may be inspected every 2 to 3 days for three different parameters: (i) swelling of the hind ankle and foot, measured with calipers; (ii) erythema of each leg; and (iii) swelling of the fingers. The RA index for each mouse was expressed as the mean of the three scores from the individual parameters. At the end of the experiment (60 days), we determined the proportion of CD25+Foxp3+ cells in the lymph nodes and measured cytokine titers in the lymph nodes, joints, and serum.
(§2) With continued reference to FIG. 1, in some embodiments, processor 104 may determine critical administration 124 as a function of a cytokine profile and a proportion of CD25^+ Foxp3^+ cells. […] In some embodiments, to quantify cytokines in DBA mice, joint tissues may be pulverized and resuspended in 1 ml of lysis medium per 100-mg joint weight for 60 min at 37′C, followed by centrifugation to remove debris. […]

[2] = test system: IL-10; assay: Cytokine ELISA in CIA mice, day 60: IL-10; conditions: serum pooled from five CIA mice
Text: With continued reference to FIG. 1, in some embodiments, administration 116 may be done to an animal. As a non-limiting example, the animal may include a mouse, a fish, a rabbit, human, and the like. As a non-limiting example, administration 116 of composition of the engineered virus-based nanoparticle for a treatment of an autoimmune condition may be done to dilute, brown, and non-agouti (DBA) mice based on their susceptibility to collagen-induced arthritis (CIA). Female DBA/1 mice 6 to 8 weeks of age may be maintained under specific pathogen-free conditions. CIA may be induced by the intradermal tail base injection of 100 μg of chicken type II collagen (Sigma-Aldrich) as previously described. Five mice per group may be immunized on days 0 and 21 to induce arthritis. The onset of disease may be confirmed on the day that swelling or erythema may be observed in any paw, typically 4 to 10 days after the second immunization. Each experimental group may be treated seven times, 5 days apart, starting from day 28 after the first immunization, with intraperitoneal injections of saline (200 μI per mouse), TBSV·pLIp1, TBSV·pFADK2, pLIp1+IFA, and pFADK2+IFA (all 50 μg per mouse in 200 μl) or dexamethasone (5 μg per mouse in 200 μl). […] CIA may be assessed using a macroscopic score system based on the visual identification of arthritic limbs.

[3] = test system: IFN-γ; assay: Cytokine ELISA in CIA mice, day 60: IFN-γ
Text: as §1, §2

[4] = joint supernatant, CIA mice, day 60, mean n=3
[5] = lymph node supernatant, CIA mice, day 60, mean n=3
[6] = serum pooled from five CIA mice, day 60

For `C[C@@H]1C[C@H]2[C@@H]3CCC4=CC(=O)C=C[C@]4(C)[C@@]3(F)[C@@H](O)C[C@]2(C)[C@@]1(O)C(=O)CO` [Dexamethasone, dexamethasone], the “IL-1β J” value [1, 4] was 38.43 pg/mL, the “IL-1β LN” value [1, 5] was 65.63 pg/mL and the “IL-1β S” value [1, 6] was 26.6 pg/mL. The IL-10 [2] was 71.6 pg/mL, the “IFN-γ J” value [3, 4] was 187.23 pg/mL and the “IFN-γ LN” value [3, 5] was 210.86 pg/mL. The “IFN-γ S” value [3, 6] was 75.6 pg/mL.
